The values that follow come from patent publication US20090312384A1, “Benzimidazole As Cooling Compounds” (priority 2006, published 2009).

The subject of one series is panelists. As to the kind of experiment: Panel tasting of aqueous solutions for cooling intensity versus menthol at 2 ppm. The class given is in vivo. The conditions noted are these: aqueous solution; concentration with cooling intensity similar or slightly higher than a solution of menthol at 2 ppm. The source says:
Experiments on cooling properties/intensities.
A group of panelists was asked to taste various aqueous solutions of compounds of formula (I) and to indicate which solutions had cooling intensities similar or slightly higher than that of a solution of menthol at 2 ppm.

The test system of a further series is panelist. Kind of series: Application in toothpaste: panelist's teeth brushed with toothgel containing the cooling compound. The class given is in vivo. The conditions noted are these: 0.20 g of 5% (w/w) ethanol solution in opaque toothgel with peppermint oil and saccharin, after brushing and rinsing. As to the method: [table] The chemicals were mixed in the toothgel, a piece of toothgel was put on a toothbrush and a panelist's teeth were brushed. The mouth was rinsed with water and the water was spit out. […] The cooling perception lasted for 90 minutes.

Compound `COc1ccc(C(=O)OC(=Cc2nc3ccccc3n2C)c2ccc(OC)cc2)cc1` [1-(4-methoxyphenyl)-2-(1-methyl-1H-benzo[d]imidazol-2-yl)vinyl 4-methoxybenzoate] had a Concentration with panelists of 0.5 ppm.

`CC1CCC(C(C)C)C(O)C1` (stereo not drawn) [Example 1-Menthol, 1-Menthol, reference compound] displayed a Concentration in the series on panelists of 2 ppm solution. Turning to `COc1ccc(C(=O)OC(=Cc2nc3cc(C)ccc3n2C(C)C)c2ccc(Cl)cc2)cc1` [Example 2, 1-(4-chlorophenyl)-2-(1-isopropyl-5-methyl-1H-benzo[d]imidazol-2-yl)vinyl 4-methoxybenzoate], the melting point is 155 to 160 °C. Compound `COc1ccc(C(=O)OC(=Cc2nc3cc(C)ccc3n2C(C)C)c2ccc(OC)cc2)cc1` [Example 3, 2-(1-isopropyl-5-methyl-1H-benzo[d]imidazol-2-yl)-1-(4-methoxyphenyl)vinyl 4-methoxybenzoate] yielded a melting point of 147 to 152 °C. In the series with panelists, the Concentration is 0.5 ppm. Consider `Cc1ccc2nc(C=C(OC(=O)c3ccc(Cl)cc3)c3ccc(Cl)cc3)n(C(C)C)c2c1` [Example 4, 1-(4-chlorophenyl)-2-(1-isopropyl-6-methyl-1H-benzo[d]imidazol-2-yl)vinyl 4-chlorobenzoate], for which the melting point is 158 to 165 °C. On to `COc1ccc(C(=O)OC(=Cc2nc3ccc(C)cc3n2C(C)C)c2ccc(OC)cc2)cc1` [Example 5, 2-(1-isopropyl-6-methyl-1H-benzo[d]imidazol-2-yl)-1-(4-methoxyphenyl)vinyl 4-methoxybenzoate], for which the melting point was in the range of 125 to 130 °C. The same compound showed a Concentration with panelists of 0.5 ppm. Further, the “Duration of cooling perception” value in the series on panelist stood at 90 min. Besides, the “Cooling sensation felt by the panelist” value with panelist (all areas of the mouth) is “intense cooling sensation”.

In the series on panelists, `Cc1ccc(C(=O)OC(=Cc2nc3ccccc3n2C)c2ccc(C)cc2)cc1` [Example 8, 2-(1-methyl-1H-benzo[d]imidazol-2-yl)-1-p-tolylvinyl 4-methylbenzoate] gave a Concentration of 2.0 ppm.

With `CCNC(=O)C1CC(C)CCC1C(C)C` (stereo not drawn) [N-ethyl p-menthanecarboxamide (WS-3), N-ethyl p-menthanecarboxamide, reference compound], in the series with panelists, the Concentration was determined as 1.5 ppm.
